Data as given in US20260102377A1, “COMPOSITIONS AND METHODS FOR TREATING MYASTHENIA GRAVIS” (priority 2022, published 2026).
Like-named read-outs stand apart in the source and are kept apart here.

Key:
patients with MG = test: Phase 1 FIH study: safety in patients with MG; assay type: in vivo, human
Experimental: 12 patients were enrolled and completed the study. For each subject, the study consisted of three study periods during which subjects received either a single dose of NMD670 400 mg, NMD670 1200 mg, or placebo with a 7-day washout period between visits. On these study visits, subjects were asked to refrain from their regular dose of pyridostigmine (if applicable) from 14 h before dosing until after the last pharmacodynamic measurement on Day 1 (see Table 13: Visit and Assessment Schedule). The cross-over design allowed intra-individual comparison of drug effects versus placebo (see FIG. 16). A balanced design was applied to control for first-order carry-over effects.
Part C was a double-blinded, placebo-controlled, three-way cross-over comparison of two single oral doses of NMD670 in men and women with stable symptomatic myasthenia gravis. 12 patients were enrolled. For each subject, the study consisted of three study periods during which subjects received either a single dose of NMD670 or placebo. On these study visits, subjects were asked to refrain from their regular dose of pyridostigmine (if applicable) for 14 hours before dosing. Single doses were administered in randomized order (400 mg free acid, 1200 mg free acid, or placebo p.o.), with a 7-day washout period between visits (FIG. 16). NMD670/placebo was administered with 240 ml of still water.

EAMG rats = test: 14-day dosing in EAMG animals: rotarod test; assay type: in vivo, rat
Experimental: To induce EAMG, 250 μL of emulsion of Complete Freund's Adjuvant, consisting of heat-inactivated Mycobacterium tuberculosis H37Ra in non-metabolizable oils, together with Phosphate-Buffered Saline (PBS) and 80 μg of the extracellular α-domain peptide fragment of the human nicotinic acetylcholine receptor (antigen) was injected subcutaneously in seven-week-old, anaesthetized Lewis rats. The disease-inducing antigen was supplied by the Hellenic Pasteur institute3. The emulsion was deposited at the tail base, left hindleg, and right foreleg. After injection, animals were allowed to recover and returned to their home cage maintained in ventilated racks under controlled temperature (20 to 22° C.) and humidity (˜55%) control, under a 12-h light/12-h dark cycle with food and water provided ad libitum. The animals had pathogen free status and the housing and changing system was designed to assure that the pathogen free status was preserved during the study. The EAMG rats were observed, weighed, and scored for MG symptoms weekly until symptoms of MG developed, whereafter animals were observed daily.
Sixteen (16) rats with an EAMG clinical score of 2 were allocated to the study and stratified to one of the two treatment groups (vehicle vs NMD670, 8 rats per group). Stratification was based on rotarod endurance and grip strength performance with the aim to obtain similar average starting points for the two groups. Grip strength and Rotarod performance were measured prior to treatment (day 0) and on days 1, 4, 7, 9, 11 and 14 during treatment. The treatment was administered by per oral gavage. Dosing was twice daily with 20 mg/kg NMD670 or vehicle (sterile water) for 14 days unless the rat was subjected to premature termination due to reaching humane endpoints. The dose solutions for the treatment groups were blinded. Thus, experimenters and subsequent analysis were blinded as to which group received CIC-1 inhibitor and which group received vehicle. Full analysis of data and statistics were concluded before unblinding the data. Plasma samples were obtained on days 0, 1 and 14, with muscle samples obtained on day 14 at termination.
Rotarod test was conducted on a Touchscreen Rotarod from Panlab (Model LE8305, Harward Apparatus). For testing the running performance, the rat was placed in one of 4 running lanes on the rotating rod that rats were challenged to run on. Prior to the first test on the rotarod on Day 0, the rat was allowed a 1-minute run at 4 rotations per minute (RPM), to familiarize with the apparatus. The rat was then allowed at least 5 minutes of rest before the test was conducted. To test the running performance, the rat was challenged with a protocol consisting of constantly accelerating speed from 4 to 40 RPM over 420 seconds. Test occasions consisted of 3 runs with at least 5 and no more than 15 minutes of rest between each run. Performance was quantified by the duration that the rat was able to remain on the rotating rod. Average values of the 3 runs per test occasion were used for further data processing.

Tablet dissolution = assay type: physicochemical; details: after a maximum of 60 minutes; USP2 paddles 75 RPM, 900 ml dissolution media pH 6.8, 37° C.
Experimental: Tablet dissolution was determined as follows.
Dissolution Media pH 6.8 was prepared by dissolving 27.3 g Na2HPO4·2H2O and 4.9 g Citric Acid in 1 L Milli-Q water. The pH was measured and adjusted if necessary to pH 6.8.
900 mL of dissolution media pH 6.8 was accurately transferred into each dissolution vessel. The apparatus was assembled, and the dissolution media was heated to 37° C.±0.5° C. The T=0 point was extracted from each vessel prior to dropping the tablets into the dissolution vessels. One tablet was gently dropped into each dissolution vessel, and rotation of the paddle was immediately started. Samples were taken that the sample extraction timepoints and analysed using the HPLC method.

[1] = system: muscle fibres from EAMG rats; test: Endplate potentials (EPP) in isolated nerve-muscle preparations; assay type: cell-based, rat; details: 20 μM NMD670
From the text: The effect of CIC-1 inhibition on neuromuscular transmission was investigated at the cellular level by recording endplate potentials (EPPs) with intracellular electrodes in isolated nerve-muscle preparations from healthy and EAMG rats (score 0-2). Muscle preparations used in the experiments were diaphragm or levator longus auris (LAL) providing the advantage to dissect out 1-3 cm of intact motor nerve. After dissection, preparations were immediately mounted in a chamber perfused with NKR at a temperature of 30-31° C., pH 7.4-7.5. […]

[2] = Phase I clinical trial Part A: pharmacokinetics; assay type: in vivo; details: human; for Cmax / half-life / AUC(0-inf): plasma; for AUC(0-inf): read-out: AUC0-infinity (Mean ± SD, h · ng/mL)
[3] = system: soleus muscle fibres from healthy and EAMG rats; test: Rheobase current (muscle fibre excitability) in soleus muscle fibres; assay type: cell-based, rat; details: 20 μM NMD670; soleus muscle fibres from healthy (n=20) and EAMG (n=12) rats, before vs after addition
From the text: To allow for measurements of electrophysiological properties at the cellular level and for measurements of force, it was necessary to isolate nerve-muscle preparations from the rats. To this end, animals were sacrificed, and muscles were dissected out with 1 to 3 cm of intact nerve. The nerve-muscle preparations were then transferred to the organ baths used for the particular experiments (see below) and perfused with Normal Krebs-Ringer (NKR) solution, consisting of (in mM); 122 NaCl, 25 NaHCO3, 2.8 KCl, 1.2 KH2PO4, 1.2 MgSO4 1.27 CaCl2 and 5 D-glucose. This NKR solution was continuously gassed with a mixture of 95% oxygen and 5% CO2, to maintain a pH of approx. 7.4. In some experiments methyl-sulphate was used to replace Cl^− in the solution. All chemicals used were of analytical grade.

[4] = male, po, 1600 mg, 1600 mg single oral dose, healthy male subjects, SD not given

## C[C@H](Oc1ccc(Br)cc1-c1ccon1)C(=O)O [NMD670, (2S)-2-[4-bromo-2-(1,2-oxazol-3-yl)phenoxy]propanoic acid]
Patients with MG; 1200 mg doses
  Treatment-related adverse effects in MG patients: no treatment-related adverse effects
Patients with MG; single doses up to 1200 mg
  Myotonia in patients with MG: not observed
EAMG rats; 14-day chronic dosing, 20 mg/kg twice daily
  Endurance on rotarod over vehicle group throughout the period of treatment: higher endurance on rotarod
EAMG rats; day 0 (prior to treatment), 20 mg/kg twice daily per oral, P = 0.9478 vs vehicle
  Rotarod performance (latency to fall in seconds): 28.5 ± 7.3 s
EAMG rats; day 1, 20 mg/kg twice daily per oral, P > 0.9999 vs vehicle
  Rotarod performance (latency to fall in seconds): 38.4 ± 8.7 s
EAMG rats; day 4, 20 mg/kg twice daily per oral, P = 0.4613 vs vehicle
  Rotarod performance (latency to fall in seconds): 37.8 ± 10.1 s
EAMG rats; day 7, 20 mg/kg twice daily per oral, P = 0.7852 vs vehicle
  Rotarod performance (latency to fall in seconds): 29.1 ± 8.8 s
EAMG rats; day 9, 20 mg/kg twice daily per oral, P = 0.6753 vs vehicle
  Rotarod performance (latency to fall in seconds): 27.5 ± 9.1 s
EAMG rats; day 11, 20 mg/kg twice daily per oral, P = 0.0335 vs vehicle
  Rotarod performance (latency to fall in seconds): 35.5 ± 12.6 s
EAMG rats; day 14, 20 mg/kg twice daily per oral, P = 0.8122 vs vehicle
  Rotarod performance (latency to fall in seconds): 19.0 ± 5.7 s
Tablet dissolution
  NMD670 released from the tablets: Not less than 80%
[1]
  Endplate potential (EPP) in muscle fibres from EAMG rats vs healthy rats: could be restored
[1]; EAMG rats, throughout a 12 Hz train of 30 stimulations, 82 fibres vs 68 fibres without inhibitor
  Increase of endplate potential (EPP) amplitude: more than 35%
[2]; female, po, 800 mg, 800 mg (female), single oral dose, read-out: Cmax (Mean ± SD, ng/mL)
  Cmax: 44400 ± 7480 ng/mL
[2]; phase 1 FIH study
  Accumulation between single and multiple dosing: no meaningful accumulation
[2]; oral, mostly eliminated in 24 hours, read-out: Half-life (converted)
  half-life: ~5 h
[2]; male, po, 50 mg, 50 mg single oral dose, healthy male subjects, read-out: Cmax (Mean ± SD, ng/mL)
  Cmax: 1900 ± 580 ng/mL
[2]; male, po, 100 mg, 100 mg single oral dose, healthy male subjects
  AUC(0-inf): 18.5 ± 1.77 µg·h/mL
[2]; male, po, 100 mg, 100 mg single oral dose, healthy male subjects, read-out: Cmax (Mean ± SD, ng/mL)
  Cmax: 3980 ± 1190 ng/mL
[2]; male, po, 100 mg, 100 mg single oral dose, healthy male subjects, read-out: T1/2 (mean ± SD, hr) (converted)
  half-life: 5.07 ± 0.63 h
[2]; male, po, 200 mg, 200 mg single oral dose, healthy male subjects
  AUC(0-inf): 36.1 ± 5.03 µg·h/mL
[2]; male, po, 200 mg, 200 mg single oral dose, healthy male subjects, read-out: Cmax (Mean ± SD, ng/mL)
  Cmax: 7780 ± 1130 ng/mL
[2]; male, po, 200 mg, 200 mg single oral dose, healthy male subjects, read-out: T1/2 (mean ± SD, hr) (converted)
  half-life: 4.6 ± 0.67 h
[2]; male, po, 400 mg, 400 mg single oral dose, healthy male subjects
  AUC(0-inf): 87.7 ± 21.4 µg·h/mL
[2]; male, po, 400 mg, 400 mg single oral dose, healthy male subjects, read-out: Cmax (Mean ± SD, ng/mL)
  Cmax: 20100 ± 7340 ng/mL
[2]; male, po, 400 mg, 400 mg single oral dose, healthy male subjects, read-out: T1/2 (mean ± SD, hr) (converted)
  half-life: 4.68 ± 0.49 h
[2]; male, po, 800 mg, 800 mg fasted (male), single oral dose
  AUC(0-inf): 191 ± 31.5 µg·h/mL
[2]; male, po, 800 mg, 800 mg fasted (male), single oral dose, read-out: Cmax (Mean ± SD, ng/mL)
  Cmax: 36700 ± 15400 ng/mL
[2]; male, po, 800 mg, 800 mg fed (male), single oral dose
  AUC(0-inf): 180 ± 27.9 µg·h/mL
[2]; male, po, 800 mg, 800 mg fed (male), single oral dose, read-out: Cmax (Mean ± SD, ng/mL)
  Cmax: 37300 ± 7420 ng/mL
[2]; male, po, 1200 mg, 1200 mg single oral dose, healthy male subjects
  AUC(0-inf): 358 ± 176 µg·h/mL
[2]; male, po, 1200 mg, 1200 mg single oral dose, healthy male subjects, read-out: Cmax (Mean ± SD, ng/mL)
  Cmax: 55000 ± 21700 ng/mL
[2]; male, po, 1200 mg, 1200 mg single oral dose, healthy male subjects, read-out: T1/2 (mean ± SD, hr) (converted)
  half-life: 6.11 ± 1.28 h
[2]; [4]
  Cmax: 123000 ng/mL
  AUC(0-inf): 826 µg·h/mL
[2]; male, po, 1600 mg, 1600 mg single oral dose, healthy male subjects, SD not given, read-out: T1/2 (mean ± SD, hr) (converted)
  half-life: 4.48 h
[3]
  Rheobase current: significantly reduced rheobase current
